Laboratory results from patent US12678488B2, “Batch management method for improving farrowing rate or number of piglets born alive in swine” (priority 2024, dated 2026).
“Also recorded” adds a separate entry of the source.

Experiments:
[1] = tested on: Enpp2, Lpar3 and ptgs2 mRNA (LPA signalling pathway) in the uterus; experiment: Quantitative PCR of key molecules in the LPA signalling pathway in mouse uteri; type: in vivo; details: mice, 10 μg/kg·BW
Experimental: 6-8-week-old ICR female mice acclimatized to the laboratory mouse house environment and in a good condition were selected and divided into a batch farrowing with FTAI model group, a batch farrowing with FTAI+low-dose model group, and a batch farrowing with FTAI+high-dose model group, and 10IU PMSG was injected at 17:00 pm. […] At 7:00-9:00 the next morning, vaginal plugs were examined, and this day was recorded as day 1 (D1) of pregnancy. In the afternoon of day 5 (D5) of pregnancy, 0.4 ml of 1% Chicago blue-normal saline solution was injected into model mice at the caudal vein, and after 3 minutes of systemic circulation, the mice were sacrificed by means of cervical dislocation, the abdominal cavity was immediately cut open, and the abdominal aorta was cut for bleeding. […] Blue dots on the uterus were recorded as embryo implantation sites, the number of implantation sites was counted, and patterns of embryo spacing in different groups were drawn.
Unfixed uteri were isolated for RNA extraction, reverse transcription and quantitative PCR detection of several key target molecules in the LPA signalling pathway, i.e., detection of Enpp2 (a gene for the expression of ATX, the key enzyme of LPA synthesis), Lpar3 (LPA receptor gene), and ptgs2 (a key gene downstream of LPAR). […]

estradiol = experiment: Peripheral blood estradiol level in gilts after insemination by radioimmunoassay (Example 4); type: in vivo, pigs; details: once low-dose 12-20 μg/kg·BW, day 2-day 16 after mating
Experimental: The breed of the gilts used in this experiment was Landrace x Large White binary sows, the gilts were randomly divided into the following 3 groups, and the treatment method for each group was as follows:
batch farrowing with FTAI: the gilts were fed with an altrenogest oral solution at 20 mg/gilt at the same time every day, for 18 days; PMSG at 1000 IU/gilt was injected intramuscularly 42 h after the last feeding with altrenogest, GnRH at 100 μg/gilt was injected intramuscularly after another 80 h, the first timed insemination was performed 24 h after the injection of GnRH, and the second timed insemination was performed after 24 h. […]
Peripheral blood was collected from the gilts in the batch farrowing with FTAI and the batch farrowing with FTAI with supplementing with a single low dose of 1-[bis(4-cyanophenyl)methyl]-1,2,4-triazole at different times after mating, i.e., days 2, 4, 10 12, and 16 after mating, blood was collected from the anterior vena cava of the gilts and centrifuged, the supernatant was taken, stored at −20° C., and then detected for estradiol level by radioimmunoassay.
The detection steps were as follows: 12×75 mm disposable tubes were arranged on a tube rack, and were a total radioactivity counting (tc) tube, a non-specific binding (NSB) tube, a zero standard (0) tube, standard tubes, and sample tubes, respectively. […]

[2] = tested on: ENPP2, LPAR3 and PTGS2 mRNA (LPA signalling pathway) in the uterus; experiment: Quantitative PCR of key molecules in the LPA signalling pathway in gilt uteri (Example 4); type: in vivo, pigs; details: gilts, 12 μg/kg·BW
Experimental: The gilts in the batch farrowing with FTAI and the gilts in the batch farrowing with FTAI supplementing once with 1-[bis(4-cyanophenyl)methyl]-1,2,4-triazole (12 μg/kg·BW) were slaughtered. The gilts were slaughtered 16 days after mating, with 4 gilts slaughtered per group. By judging the number of corpora lutea on the ovary, the number of ovulated oocytes (each corpus luteum represented an ovulation point) was confirmed.
Uteri were isolated from the gilts for RNA extraction, reverse transcription and quantitative PCR detection of several key molecules in the LPA signalling pathway, i.e., detection of ENPP2 (a gene for the expression of ATX, the key enzyme of LPA synthesis), LPAR3 (LPA receptor gene), and PTGS2 (a key gene downstream of LPAR).

batch farrowing sows = experiment: Previous experiment of feeding batch farrowing sows with different doses at different times; type: in vivo, pigs; details: application dosage and oral administration time of clinical medicine and bovine superovulation
Experimental: In the disclosure, the administration dosage of 1-[bis(4-cyanophenyl)alkyl]-1,2,4-triazole is generally 10-50 μg/kg·BW administered in a single dose, preferably 12-30 μg/kg·BW administered in a single dose, further preferably 12-25 μg/kg·BW administered in a single dose, e.g., 13, 14, 15, 16, 17, 18, 19, 20, 21, 22, or 23 μg/kg·BW. Alternatively, it can be administered in two doses. As long as the total administration dosage of the two doses is within a range of 10-50 μg/kg·BW, the dosage of each administration is not particularly limited, for example, each administration dosage is generally within a range of 1-40 μg/kg·BW. In the case of two doses, the time interval between the two instances of administration is 8-30 hours, preferably 9-28 hours, more preferably 10-26 hours, further preferably 12-25 hours, 14-24 hours, etc. If the administration dosage is too high, it tends to affect the estrus and ovulation in animals and even cause ovarian cysts. The administration dosage of the disclosure is important.

[3] = compared with natural estrus group

N#Cc1ccc(C(c2ccc(C#N)cc2)n2cncn2)cc1 [1-[bis(4-cyanophenyl)methyl]-1,2,4-triazole] was tested, and the “Enpp2, Lpar3 and ptgs2 mRNA levels in the uteri” value (“Enpp2 … in the uteri” below) ([1]; compared with batch farrowing with FTAI model group) was “significantly higher”, the “Enpp2 … in the uteri” value [1, 3] was “no significant difference” and the “blood estradiol (estrogen) level after mating” value (estradiol) was “no obvious change; also recorded: no significant effect”. For the same compound, the “Enpp2 … in the uteri” value ([2]; compared with batch farrowing with FTAI group) was “significantly higher”, the “Enpp2 … in the uteri” value [2, 3] was “no significant difference” and the “problems caused in sows” value (batch farrowing sows) was “recessive estrus, ovarian cyst, anovulation, and pregnancy failure”.
